In PMC5907308, “21st Brazilian Diabetes Society Congress” (Diabetology & Metabolic Syndrome, 2018):
Where two headings read alike, the source gives them in different places.

What was measured:
patient with T2DM = assay: Case report: endogenous hyperinsulinism in T2DM; assay type: in vivo, human; settings: Acarbose prescribed 2 years ago; Verapamil 80 mg/day with dietary changes
Source text: patient three diagnosed with type 2 diabetes (T2DM), using insulin for 22 years. Eight years ago, they started to present frequent episodes of symptomatic hypoglycemia, preferably in fasting periods. There was no cessation of the episodes even with the suspension of all insulin and antidiabetic drugs, which lead to an investigation with a prolonged fasting test (Table 1). The test confirmed endogenous hyperinsulinism (EH). […] They were then submitted to a selective arterial calcium stimulation test (SACST), whose results excluded insulinoma. […] Verapamil (80 mg/day) was initiated along with dietary changes, with good response.

[1] = tested on: patients after Roux-en-Y gastric bypass; assay: Postprandial hyperinsulinemic hypoglycemia after RYGB, case series; assay type: in vivo, human
Procedure: Cases report: Case (1) A person developed postprandial hypoglycemic episodes 6 years after Roux-en-Y gastric bypass (RYGB). A mixed meal tolerance test (MMTT, 500 kcal, 20% protein, 20% fat and 60% carbohydrates) was performed, leading to symptomatic postprandial hyperinsulinemic hypoglycemia (PHH) with a nadir of 45 mg/dL at 120 min (insulin of 8 mU/L; C-peptide of 3.21 ng/mL). […] Cases 2 and 3). Two […] women presented hypoglycemia following meals 3 and 5 years after RYGB. MMTT (120 min): glycemia of 34 mg/dL, insulin of 17 mU/L and C-peptide of 6.23 ng/mL and, in the second one, glycemia of 52 mg/dL, insulin of 9 mU/L and C-peptide of 2.7 ng/mL. PT and MRCP were normal in both cases. […] Case 4). A person who underwent RYGB 1.5 years ago reported hypoglycemic episodes in the last 6 months. MMTT: glycemia of 26 mg/dL at 150 min, insulin of 34 mU/L and C-peptide of 6.03 ng/mL. […] They were submitted to distal pancreatectomy and symptoms disappeared after diazoxid and hydrochlorothiazide. Case 5). A person developed hypoglycemia 10 years after RYGB. […] MMTT: glycemia of 43 mg/dL at 120 min, insulin of 100 mU/L and C-peptide of 1.95 ng/mL. […] Antiinsulin antibodies were negative in all cases (Table 1).

[2] = tested on: hypothalamus of young rats; assay: Chronic ICV treatment with the nitric oxide donor GSNO; assay type: in vivo, rat
T2DM patients = settings: monotherapy; systematic review and mixed treatment meta-analyses comparison of RCTs; cited from earlier work
Source text: Results: All DPP4 presented a statistically significant change of HbA1c from baseline compared to placebo (alogliptin − 0.797 (95%CI − 0.943 to − 0.651); linagliptin − 0.734 (CI − 0.88 to − 0.588); saxagliptin − 0.593 (CI − 0.811 to − 0.375); sitagliptin -0.788 (CI − 0.954 to − 0.622); vildagliptin −0.60 (CI − 0.80 to − 0.40)). Based on drug acquisition costs, alogliptin monotherapy presented the lowest annual treatment costs and the lowest cost for every 1% HbA1c reduction followed by saxagliptin, linagliptin, sitagliptin and vildagliptin (Table 1).

patients with T1DM = assay: High dose vitamin D for 12 weeks, DKD/albuminuria pilot study; assay type: in vivo, human
Source text: Methods: 22 patients received doses of 4000 and 10000 IU/day of cholecalciferol for 12 weeks according to patient’s previous VD levels. They were submitted to continuous glucose monitoring system (CGMS), 24-h ABPM and urine albumin-to-creatinine ratio (UACR) before and after VD supplementation.

male Wistar rats = assay type: in vivo, rat
Procedure: In addition, experimental studies of effects of different doses are important in assessing the safety of a drug. The objective was to evaluate the lipid biomarkers in rats treated with several doses of prednisone. […] The treatment was daily for of 21 days, with weekly measures of body weight, food consumption and calories ingested on days 0, 8 and 16 of treatment. On the last day, the caloric gain was evaluated and then the rats were anesthetized and killed by decapitation to collect the whole blood for serum biochemical analyzes. All data were statistically evaluated with significance of 5%.

[3] = tested on: patients submitted to liver transplantation; assay type: in vivo, human; settings: Tacrolimus 95% CI 1.2–32.5, p = 0.029; PDN 95% CI 2.4–21, 8, p < 0.001
Source text: A total of 152 patients were included. […] Comparisons were done with Chi square tests and analysis of independent risk factors with multivariate logistic regression.

[4] = tested on: Normoglycemic adult Wistar rats; settings: for TOTG glycemia, 120 min: CONT 93.7 ± 4.1
Procedure: The side effects are primarily determined by dosage and time of use. The objective was to evaluate the effects of increasing doses of PRD on the action of endogenous insulin in Wistar rats. Normoglycemic adult rats weighing 450–510 g were divided into 5 groups, differentiated by their daily treatment (18 days) orally, as the PRD dose used [CONT, PRD1 (0.625 mg/kg), PDR2 (1.250 mg/kg), PRD3 (2.500 mg/kg) and PRD4 ([…])]. Rats received water and food ad libitum, and on 0, 8 and 16 days of treatment the fasting glycemia was measured. On the 17th day, the oral glucose tolerance test (TOTG) was performed, collecting blood for glucose levels at fasting times (− 1 min) and 30, 60 and 120 min after administration of glucose solution. […] The data were statistically analyzed with significance of 5%.

[5] = tested on: male rats with mild diabetes (neonatal streptozotocin); assay type: in vivo, rat
Procedure: Background: The prednisone (PRD) is a glucocorticoid that may lead to the development of temporary hyperglycemia. […] The objective was to evaluate the effects of PRD in mild diabetic rats by biochemical and immunological biomarkers. […] The rats were separated into 4 groups: control (C), treated control C + PRD (oral treatment of 1.25 mg/kg/day PRD); diabetic DM (mild diabetes) and treated diabetic DM + PRD (mild diabetes, treatment with same dose as C + PRD group). Untreated groups received vehicle, adjusted volume according to body weight. The treatment daily for 21 days and it were weekly measured the body weight, food and water intake, and glycemia. In the 3rd week of treatment, the oral glucose tolerance test (OGTT) and insulin tolerance test (TTI) were performed, area under the glycemic curve (ASC) values were calculated. In the 21st day, the rats were killed and the blood was collected for serum biochemical, leukogram and immunoglobulin G determinations. All data was statistically evaluated with 5% significance.

patient with DM2 and PAH = assay: Vildagliptin in T2DM with pulmonary arterial hypertension, case report; assay type: in vivo, human
Source text: The main etiology of pulmonary arterial hypertension (PAH) is idiopathic. In more than one-third of these cases, patients have criteria for metabolic syndrome. Alone, obesity, dyslipidemia and type 2 diabetes mellitus (T2DM) have a direct and indirect relationship in the pathophysiology of PAH. The presence of glucagon-like peptide-1 (GLP1) receptors in different organs of our body gives this incretin several pleiotropic effects, in addition to its already well established role in the treatment of obesity and T2DM. […] Considering this and using a weight-neutral incretin-based therapy, we opted for the use of a DPP4 inhibitor (vildagliptin 50 mg 2×/day) to increase GLP1 levels in a patient with DM2, hypertension, dyslipidemia, obesity grade I (BMI of 30.2 kg/m2) and PAH.

[6] = tested on: patient with metastatic melanoma; assay: Ipilimumab endocrinological side effects, case report; assay type: in vivo, human
Source text: In the last couple of years, monoclonal antibodies have emerged as effective therapies for advanced neoplasms. […] CTLA-4 is expressed on the surface of T lymphocytes and transmits an inhibitory signal through its B7-1/2 linker. In blocking the CTLA-4, Ipilimumab promotes an enhancement of T cell activation against neoplasms. During the treatment, the activation of these cells can also be directed to different organs/tissues and affect the skin (dermatitis), gastrointestinal tract (colitis, pancreatitis, hepatitis), lung (pneumonitis) and endocrine glands (thyroiditis, hypophysitis, adrenalitis). […] The patient is a person previously healthy, with a diagnosis of metastatic melanoma. They were subjected to surgical removal of the skin lesion and infraclavicular lymph node, in addition to adjuvant treatment with Ipilimumab. They performed four cycles of this medication and evolved with asthenia, headache, abdominal pain and hyperglycemia, about 3 weeks after the last cycle. They were hospitalized and during the medical investigation the following were detected: low ACTH, low cortisol and hyperprolactinemia—characterizing hypophysitis. Furthermore, there was an elevation of amylase and lipase and hyperglycemia, with levels above 400 mg/dL, requiring insulinization. […]

[7] = 0.625 mg/kg daily orally (PRD1)
[8] = 1.250 mg/kg daily orally (PRD2)

Compound: C[C@H]1O[C@H](O[C@H]2[C@H](O)[C@@H](O)[C@@H](O[C@H]3[C@H](O)[C@@H](O)C(O)O[C@@H]3CO)O[C@@H]2CO)[C@H](O)[C@@H](O)[C@@H]1N[C@H]1C=C(CO)[C@@H](O)[C@H](O)[C@H]1O (some centres unmarked) [Acarbose]
- response of hypoglycemia episodes (patient with T2DM): no improvement
- clinical response of postprandial hypoglycemia ([1]; Case 5): controlled their symptoms
- clinical response of postprandial hypoglycemia ([1]; Cases 2 and 3): Improvement occurred

Compound: N[C@@H](CCC(=O)N[C@@H](CSN=O)C(=O)NCC(=O)O)C(=O)O [GSNO]
- S-nitrosation of insulin signalling proteins in the hypothalamus [2]: enhance S-NO of IRβ and Akt
- food intake and body weight [2]: increased food intake and body weight

Compound: N[C@@H](CC(=O)N1CCn2c(nnc2C(F)(F)F)C1)Cc1cc(F)c(F)cc1F [Sitagliptin, sitagliptin]
- change of HbA1c from baseline compared to placebo (T2DM patients): -0.788

Compound: C=C1CC[C@H](O)C/C1=C/C=C1\CCC[C@]2(C)[C@@H]([C@H](C)CCCC(C)C)CC[C@@H]12 [VD, cholecalciferol]
- patients with DKD at the beginning whose DKD stage improved (patients with T1DM; 8/13 patients, 12 weeks): 62%
- DKD prevalence at the end of the study (patients with T1DM; cholecalciferol 4000 or 10000 IU/day for 12 weeks, n = 22, 68% before): 32%

Compound: COc1ccc(CCN(C)CCCC(C#N)(c2ccc(OC)c(OC)c2)C(C)C)cc1OC (centres unmarked) [Verapamil]
- response of hypoglycemia episodes (patient with T2DM): good response

Compound: C[C@]12C=CC(=O)C=C1CC[C@@H]1[C@@H]2C(=O)C[C@@]2(C)[C@H]1CC[C@]2(O)C(=O)CO [prednisone]
- calories ingested, 16th day of treatment (male Wistar rats; 5.0 mg/Kg daily (PRD2), n = 7): 93.2 ± 20.4 kcal/day
- calories ingested, day 0 (male Wistar rats; 5.0 mg/Kg daily (PRD2), n = 7): 63.7 ± 12.3 kcal/day
- calories ingested, day 8 of treatment (male Wistar rats; 5.0 mg/Kg daily (PRD2), n = 7): 69.0 ± 18.1 kcal/day
- body weight, dietary intake, serum triglyceride, total cholesterol, VLDL, LDL, non-HDL cholesterol (male Wistar rats; 2.5 and 5.0 mg/Kg, 21 days, p > 0.05): no differences
- independent risk factor for PTDM, OR [3]: 7.2
- TOTG glycemia, time -1 min ([4]; 0.625 mg/kg (PRD1), day 17, CONT 87.7 ± 5.7): 106 ± 5.8 mg/dL
- TOTG glycemia, 120 min ([4]; 0.625 mg/kg (PRD1)): 122.8 ± 15.7 mg/dL
- fasting glycemic increase compared to CONT, day 8 [4, 7]: 30%
- fasting glycemic increase compared to CONT, day 16 [4, 7]: 20%
- glycemia increase of PRD1 compared to PRD4, day 16 ([4]; 0.625 mg/kg vs PRD4): 16%
- TOTG glycemia, 120 min ([4]; 1.250 mg/kg (PRD2)): 120.6 ± 11.6 mg/dL
- fasting glycemic increase compared to CONT, day 8 [4, 8]: 27%
- fasting glycemic increase compared to CONT, day 16 [4, 8]: 9%
- ASCp, increased glycemic load vs CONT, interval 30–60 min ([4]; PRD4): 36%
- glycemia increasing vs C group, all weeks of treatment ([5]; DM + PRD, 1.25 mg/kg/day): 51%
- lymphocytes, increase vs C group ([5]; DM + PRD, day 21): 19%
- neutrophils, increase vs C group ([5]; DM + PRD, day 21): 200%
- total leukocytes, increase vs C group ([5]; DM + PRD, day 21): 30%
- food intake increasing vs C group, 2nd and 3rd week ([5]; DM + PRD, oral 1.25 mg/kg/day): 18%
- high-density lipoprotein, decrease vs C group ([5]; DM + PRD, serum): 8%
- triglycerides, decrease vs C group ([5]; DM + PRD, serum): 21%
- very low-density lipoproteins, decrease vs C group ([5]; DM + PRD, serum): 10%
- OGTT glycemia, 30 min ([5]; DM + PRED group, 3rd week): 275 mg/dL
- OGTT glycemia, 60 min ([5]; DM + PRED group, 3rd week): 258 mg/dL
- OGTT glycemia, 120 min ([5]; DM + PRED group, 3rd week): 161 mg/dL
- body weight decrease, all measures ([5]; DM and DM + PRD groups): about 27%

Compound: N#C[C@@H]1CCCN1C(=O)CNC12CC3CC(CC(O)(C3)C1)C2 [vildagliptin]
- right ventricular systolic pressure (RVSP) (patient with DM2 and PAH; 50 mg 2×/day, 6 months after its use, 45 mmHg before): 38 mmHg
- fasting glycemia (patient with DM2 and PAH; 6 months after its use): 111 mg/dL
- A1c (patient with DM2 and PAH; 6 months after its use, without episodes of hypoglycemia): 6.0%
- A1c (patient with DM2 and PAH; January/2017): 6.5%
- fasting glycemia (patient with DM2 and PAH; January/2017): 112 mg/dL
- RVSP (patient with DM2 and PAH; January/2017, 3 years of follow up): 31 mmHg
- change of HbA1c from baseline compared to placebo (T2DM patients): −0.60

Compound: Ipilimumab
- endocrinological side effects ([6]; four cycles, adjuvant treatment, about 3 weeks after the last cycle): hypophysitis and pancreatitis, in addition to secondary diabetes
- hyperglycemia, levels ([6]; requiring insulinization): above 400 mg/dL
